Measurements taken from EP0212822A1, “A composition containing a plant growth regulator and an alkanol and a method of using the same” (ICI AMERICAS INC., priority 1985, dated 1987).

Columns and labels:
[1] = test system: Siberian Elm; test: Trunk injection of trees (Brown method), Retardation and Uniformity Ratings; assay type: in vivo, Ulmus pumila (Siberian Elm); set-up: key to Uniformity Rating (U): 0 = no effect from PGR; 1 = poor; 2 = fair; 3 = acceptable; 4 = very good; 5 = excellent; conditions: 10 g (II) in 1 liter methanol
Method: A method of tree injection and apparatus employed herein is discussed in G. K. Brown, "Prototype Equipment for Commercial Pressure - Injection of Aqueous Growth Regulators Into Trees," Journal of Arboriculture, Vol. 4, pp. 7-13, 1978, and in the references noted therein. Under the Brown method the number of injection holes and total injection volume (TIV) of PGR solution is determined by measuring the diameter of the tree at DBH and using the following formulae: […]
(§1) The examples which follow exemplify the improvements obtained by this invention. However, these examples are not intended to limit the scope of the invention. In Examples 1-41, the subject trees were injected at a distance approximately one foot from the soil line by drilling 7/32 inch diameter holes to a 2 inch depth at a 30-45° angle tangential to the trunk with a pressure injector (150 psi) purchased from the Asplundh Tree Expert Co., Company No. 346-3502. The results are expressed in terms of Retardation and Uniformity Ratings. The Retardation rating scale is as follows: • 0 = no retardataion • 1 = 1-20% retardation • 2 = 21-40% retardation • 3 = 41-60% retardation • 4 = 61-80% retardation • 5 = 81-100% retardation
(§2) The Uniformity Rating is a measure of the consistency of response to the treatment between different branches of the tree. The Uniformity scale employed is as follows: • 0 = no effect from PGR • 1 = poor • 2 = fair • 3 = acceptable • 4 = very good • 5 = excellent
10 (0.034 moles) grams of (2RS,3RS)-1-(4-chlorophenyl)-4,4-dimethyl-2-1,2,4-triazol-1-yl)pen- tan-3-ol (II) of the formula [drawing 41] was dissolved in 1 liter of methanol at room temperature and was stirred until the solution was clear, approximately 20 minutes.
In these examples, the number of injection holes, volume per injection hole and total injection volume in ml was determined from the DBH in accordance' with the Brown method.

[2] = test system: Water Oak; test: Trunk injection, holes at 8 inch intervals, Retardation and Uniformity Ratings; assay type: in vivo, Quercus nigra (Water Oak); set-up: key to Uniformity Rating (U): 0 = no effect from PGR; 1 = poor; 2 = fair; 3 = acceptable; 4 = very good; 5 = excellent; key to Retardation Rating (R): 0 = no retardataion; 1 = 1-20% retardation; 2 = 21-40% retardation; 3 = 41-60% retardation; 4 = 61-80% retardation; 5 = 81-100% retardation; conditions: 75 ml/hole
Method: as §1, §2
10 (0.034 moles), 20 (0.068 moles) and 40 grams (0.136 moles) of (2RS, 3RS)-1-(4-chlorophenyl)-4,4-dimethyl-2-1,2,4-triazol-1-yl)pentan-3-ol (PGR) was dissolved in 1,1 and 1 liter, respectively, of methanol at room temperature and was stirred until the solution was clear, approximately 20 to 60 minutes. In these examples, the injection holes were placed at approximate 8 inch intervals.

[3] = week 14 after treatment, listed as 1, 12 in. DBH tree, 229 ml per tree
[4] = week 14 after treatment, listed as 2, 17 in. DBH tree, 432 ml per tree
[5] = week 14 after treatment, listed as 3, 13 in. DBH tree, 268 ml per tree
[6] = week 14 after treatment, listed as 4, 11 in. DBH tree, 192 ml per tree
[7] = week 14 after treatment, listed as 5, 15 in. DBH tree, 119 ml per tree
[8] = week 14 after treatment, listed as 6, 11 in. DBH tree, 192 ml per tree
[9] = week 67 after treatment, listed as 1, 12 in. DBH tree, 229 ml per tree
[10] = week 67 after treatment, listed as 2, 17 in. DBH tree, 432 ml per tree
[11] = week 67 after treatment, listed as 3, 13 in. DBH tree, 268 ml per tree
[12] = week 67 after treatment, listed as 4, 11 in. DBH tree, 192 ml per tree
[13] = week 67 after treatment, listed as 5, 15 in. DBH tree, 119 ml per tree
[14] = week 67 after treatment, listed as 6, 11 in. DBH tree, 192 ml per tree
[15] = week 24, 10 g PGR in 1 liter methanol, listed as 7, 10 injection holes, 750 ml per tree
[16] = week 24, 10 g PGR in 1 liter methanol, listed as 8, 10 injection holes, 750 ml per tree
[17] = week 24, 10 g PGR in 1 liter methanol, listed as 9, 6 injection holes, 450 ml per tree
[18] = week 24, 10 g PGR in 1 liter methanol, listed as 10, 6 injection holes, 450 ml per tree
[19] = week 24, 20 g PGR in 1 liter methanol, listed as 11
[20] = week 24, 20 g PGR in 1 liter methanol, listed as 12
[21] = week 24, 20 g PGR in 1 liter methanol, listed as 13
[22] = week 24, 40 g PGR in 1 liter methanol, listed as 15, 7 injection holes, 525 ml per tree
[23] = week 24, 40 g PGR in 1 liter methanol, listed as 16, 10 injection holes, 750 ml per tree
[24] = week 24, 40 g PGR in 1 liter methanol, listed as 17, 6 injection holes, 450 ml per tree
[25] = week 56, 10 g PGR in 1 liter methanol, listed as 7, 10 injection holes, 750 ml per tree
[26] = week 56, 10 g PGR in 1 liter methanol, listed as 8, 10 injection holes, 750 ml per tree
[27] = week 56, 10 g PGR in 1 liter methanol, listed as 9, 6 injection holes, 450 ml per tree
[28] = week 56, 10 g PGR in 1 liter methanol, listed as 10, 6 injection holes, 450 ml per tree
[29] = week 56, 20 g PGR in 1 liter methanol, listed as 11
[30] = week 56, 20 g PGR in 1 liter methanol, listed as 12
[31] = week 56, 20 g PGR in 1 liter methanol, listed as 13
[32] = week 56, 40 g PGR in 1 liter methanol, listed as 15, 7 injection holes, 525 ml per tree
[33] = week 56, 40 g PGR in 1 liter methanol, listed as 16, 10 injection holes, 750 ml per tree
[34] = week 56, 40 g PGR in 1 liter methanol, listed as 17, 6 injection holes, 450 ml per tree

CC(C)(C)[C@@H](O)[C@@H](Cc1ccc(Cl)cc1)n1cncn1 (racemic) [Formula (II), (2RS,3RS)-1-(4-chlorophenyl-4,4-dimethyl-2-1,2,4-triazol-1-yl)pentan-3-ol]
Retardation Rating (R) [1, 3]: 3 (3 = 41-60% retardation) | Uniformity Rating (U) [1, 3]: 4 | Retardation Rating (R) [1, 4]: 3 (3 = 41-60% retardation) | Uniformity Rating (U) [1, 4]: 3 | Retardation Rating (R) [1, 5]: 4 (4 = 61-80% retardation) | Uniformity Rating (U) [1, 5]: 4 | Retardation Rating (R) [1, 6]: 4 (4 = 61-80% retardation) | Uniformity Rating (U) [1, 6]: 4 | Retardation Rating (R) [1, 7]: 3 (3 = 41-60% retardation) | Uniformity Rating (U) [1, 7]: 5 | Retardation Rating (R) [1, 8]: 3 (3 = 41-60% retardation) | Uniformity Rating (U) [1, 8]: 4 | Retardation Rating (R) [1, 9]: 5 (5 = 81-100% retardation) | Uniformity Rating (U) [1, 9]: 5 | Retardation Rating (R) [1, 10]: 4 (4 = 61-80% retardation) | Uniformity Rating (U) [1, 10]: 3 | Retardation Rating (R) [1, 11]: 4 (4 = 61-80% retardation) | Uniformity Rating (U) [1, 11]: 4 | Retardation Rating (R) [1, 12]: 5 (5 = 81-100% retardation) | Uniformity Rating (U) [1, 12]: 5 | Retardation Rating (R) [1, 13]: 5 (5 = 81-100% retardation) | Uniformity Rating (U) [1, 13]: 5 | Retardation Rating (R) [1, 14]: 5 (5 = 81-100% retardation) | Uniformity Rating (U) [1, 14]: 5 | Retardation Rating (R) [2, 15]: 2 (2 = 21-40% retardation) | Uniformity Rating (U) [2, 15]: 3 | Retardation Rating (R) [2, 16]: 3 (3 = 41-60% retardation) | Uniformity Rating (U) [2, 16]: 3 | Retardation Rating (R) [2, 17]: 3 (3 = 41-60% retardation) | Uniformity Rating (U) [2, 17]: 3 | Retardation Rating (R) [2, 18]: 5 (5 = 81-100% retardation) | Uniformity Rating (U) [2, 18]: 5 | Retardation Rating (R) [2, 19]: 2 (2 = 21-40% retardation) | Uniformity Rating (U) [2, 19]: 3 | Retardation Rating (R) [2, 20]: 5 (5 = 81-100% retardation) | Uniformity Rating (U) [2, 20]: 5 | Retardation Rating (R) [2, 21]: 4 (4 = 61-80% retardation) | Uniformity Rating (U) [2, 21]: 4 | Retardation Rating (R) [2, 22]: 1 (1 = 1-20% retardation) | Uniformity Rating (U) [2, 22]: 1 | Retardation Rating (R) [2, 23]: 0 | Uniformity Rating (U) [2, 23]: 0 | Retardation Rating (R) [2, 24]: 3 (3 = 41-60% retardation) | Uniformity Rating (U) [2, 24]: 3 | Retardation Rating (R) [2, 25]: 3 (3 = 41-60% retardation) | Uniformity Rating (U) [2, 25]: 3 | Retardation Rating (R) [2, 26]: 3 (3 = 41-60% retardation) | Uniformity Rating (U) [2, 26]: 3 | Retardation Rating (R) [2, 27]: 5 (5 = 81-100% retardation) | Uniformity Rating (U) [2, 27]: 4 | Retardation Rating (R) [2, 28]: 5 (5 = 81-100% retardation) | Uniformity Rating (U) [2, 28]: 5 | Retardation Rating (R) [2, 29]: 4 (4 = 61-80% retardation) | Uniformity Rating (U) [2, 29]: 5 | Retardation Rating (R) [2, 30]: 5 (5 = 81-100% retardation) | Uniformity Rating (U) [2, 30]: 4 | Retardation Rating (R) [2, 31]: 4 (4 = 61-80% retardation) | Uniformity Rating (U) [2, 31]: 4 | Retardation Rating (R) [2, 32]: 4 (4 = 61-80% retardation) | Uniformity Rating (U) [2, 32]: 4 | Retardation Rating (R) [2, 33]: 3 (3 = 41-60% retardation) | Uniformity Rating (U) [2, 33]: 3 | Retardation Rating (R) [2, 34]: 3 (3 = 41-60% retardation) | Uniformity Rating (U) [2, 34]: 3
